For 25 molecules, IC50 results are on record in patent US9884048B2, “ERK inhibitors” (Merck Sharp & Dohme Corp., priority 2014, dated 2018).

Chain of phosphorylated active hERK2 enzyme (P28482 whole entry): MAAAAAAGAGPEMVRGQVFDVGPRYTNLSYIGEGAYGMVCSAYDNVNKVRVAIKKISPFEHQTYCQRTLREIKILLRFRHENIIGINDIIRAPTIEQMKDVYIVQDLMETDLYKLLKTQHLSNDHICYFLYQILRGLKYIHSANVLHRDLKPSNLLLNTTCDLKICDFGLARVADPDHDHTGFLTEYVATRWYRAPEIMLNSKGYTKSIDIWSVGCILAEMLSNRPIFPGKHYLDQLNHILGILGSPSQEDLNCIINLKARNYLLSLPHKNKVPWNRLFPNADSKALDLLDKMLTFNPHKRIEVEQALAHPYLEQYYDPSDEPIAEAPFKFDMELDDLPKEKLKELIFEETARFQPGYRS

One test concerns the target phosphorylated active hERK2 enzyme (Homo sapiens (Human), UniProt P28482).
Settings: not given
`Cc1cc(-n2ncc3cc(NC(=O)N[C@@H](c4ccccc4)C(C)(C)O)nc(CO)c32)ccn1` [Example 254, 1-[7-(hydroxymethyl)-1-(2-methylpyridin-4-yl)-1H-pyrazolo[3,4-c]pyridin-5-yl]-3-[(1S)-2-hydroxy-2-methyl-1-phenylpropyl]urea]: the IC50 (as a rule, the concentration that gives 50% inhibition) worked out at 4.29 nM.

Staying with this test, now noted: read-out: ERK2 IC50; IMAP-FP assay; 0.5 nM hERK2, 30 μM ATP; 10 point titration, 3 μM starting concentration.
Consider `C[C@@H](NC(=O)Nc1cc2cnn(C3CCCCC3)c2c(CO)n1)c1ccccc1` [Example 313, 1-[1-cyclohexyl-7-(hydroxymethyl)-1H-pyrazolo[3,4-c]pyridin-5-yl]-3-[(1R)-1-phenylethyl]urea], for which the IC50 is 49.1 nM. Same read-out and setting: the value for `Cc1cc(-n2ncc3cc(NC(=O)NC(CCN4CCCCC4)c4ccccc4)ncc32)ccn1` (stereo not shown) [Example 53, 1-[1-(2-methylpyridin-4-yl)-1H-pyrazolo[3,4-c]pyridin-5-yl]-3-(1-phenyl-3-piperidin-1-ylpropyl)urea] was 49.2 nM. The same measure, in the same setting: the value for `Cc1cc(-n2ncc3cc(NC(=O)NC4COc5ccccc54)ncc32)ccn1` (stereo not shown) [Example 177, 1-(2,3-dihydro-1-benzofuran-3-yl)-3-[1-(2-methylpyridin-4-yl)-1H-pyrazolo[3,4-c]pyridin-5-yl]urea] was 215 nM; that for `O=C(NCc1ccc(Cl)c(Cl)c1)Nc1cc2cnn(-c3ccc(F)cc3)c2cn1` [Example 13, 1-(3,4-dichlorobenzyl)-3-[1-(4-fluorophenyl)-1H-pyrazolo[3,4-c]pyridin-5-yl]urea] was 19.7 nM; that for `Cc1cc(-n2ncc3cc(NC(=O)NCCOc4ccc(F)cc4)ncc32)ccn1` [Example 85, 1-[2-(4-fluorophenoxy)ethyl]-3-[1-(2-methylpyridin-4-yl)-1H-pyrazolo[3,4-c]pyridin-5-yl)urea] was 15.9 nM. Take `Cc1cc(-n2ncc3cc(NC(=O)NC4CC(C)(C)Oc5ccccc54)ncc32)ccn1` (stereo not shown) [Example 46, 1-(2,2-dimethyl-3,4-dihydro-2H-chromen-4-yl)-3-[1-(2-methylpyridin-4-yl)-1H-pyrazolo[3,4-c]pyridin-5-yl]urea]: the IC50 came out at 174 nM. On to `Cc1cc(-n2ncc3cc(NC(=O)N[C@H]4CN(C5CCC5)C[C@@H]4c4ccccc4)ncc32)ccn1` [Example 195, 1-[(3R,4S)-1-cyclobutyl-4-phenylpyrrolidin-3-yl]-3-[1-(2-methylpyridin-4-yl)-1H-pyrazolo[3,4-c]pyridin-5-yl]urea], for which the IC50 is 3.6 nM. Consider `Cn1cc(-n2ncc3cc(NC(=O)NCc4cccc(Cl)c4)ncc32)cn1` [Example 216, 1-(3-chlorobenzyl)-3-[1-(1-methyl-1H-pyrazol-4-yl)-1H-pyrazolo[3,4-c]pyridin-5-yl]urea], for which the IC50 was 15.7 nM. Still for that read-out and setting: the value for `Cc1cc(-n2ncc3cc(NC(=O)NCC(c4ccc(F)cc4)N4CCCCC4)ncc32)ccn1` (stereo not shown) [Example 54, 1-[2-(4-fluorophenyl)-2-piperidin-1-ylethyl]-3-[1-(2-methylpyridin-4-yl)-1H-pyrazolo[3,4-c]pyridin-5-yl)urea] was 195 nM; that for `Cc1cc(-n2ncc3cc(NC(=O)NCCNCc4ccccc4)ncc32)ccn1` [Example 96, 1-[2-(benzylamino)ethyl]-3-[1-(2-methylpyridin-4-yl)-1H-pyrazolo[3,4-c]pyridin-5-yl]urea] was 19.1 nM.

As to `CO[C@H]1CCC[C@@H]1NC(=O)Nc1cc2cnn(-c3ccnc(C)c3)c2cn1` [Example 140, 1-[(1S,2S)-2-methoxycyclopentyl]-3-[1-(2-methylpyridin-4-yl)-1H-pyrazolo[3,4-c]pyridin-5-yl)urea], the IC50 is 72.1 nM.

As for `C[C@@H](NC(=O)Nc1cc2cnn(-c3cnn(C)c3)c2cn1)c1ccc(F)cc1` [Example 5, 1-[(1R)-1-(4-fluorophenyl)ethyl]-3-[1-(1-methyl-1H-pyrazol-4-yl)-1H-pyrazolo[3,4-c]pyridin-5-yl)urea], the IC50 was determined as 12.2 nM. The same measure, in the same setting: the value for `Cc1cc(-n2ncc3cc(NC(=O)NCc4cn(C)cn4)ncc32)ccn1` [Example 108, 1-[(1-methyl-1H-imidazol-4-yl)methyl]-3-[1-(2-methylpyridin-4-yl)-1H-pyrazolo[3,4-c]pyridin-5-yl)urea] was 284 nM; that for `COCCCn1ncc2cc(NC(=O)N[C@H](C)c3ccccc3)ncc21` [Example 235, 1-[1-(3-methoxypropyl)-1H-pyrazolo[3,4-c]pyridin-5-yl]-3-[(1R)-1-phenylethyl]urea] was 1520 nM; that for `Cc1cc(-n2ncc3cc(NC(=O)N[C@H](C)c4ccc(F)cc4)ncc32)ccn1` [Example 223, (R)-1-(1-(4-fluorophenyl)ethyl)-3-(1-(2-methylpyridin-4-yl)-1H-pyrazolo[3,4-c]pyridin-5-yl)urea] was 2.28 nM.

Turning to `Cc1cc(-n2ncc3cc(NC(=O)N[C@@H]4CN(C)C(C)(C)[C@H]4c4ccccc4C)ncc32)ccn1` [Example 103, 1-[1-(2-methylpyridin-4-yl)-1H-pyrazolo[3,4-c]pyridin-5-yl]-3-[(3S,4S)-1,5,5-trimethyl-4-(2-methylphenyl)pyrrolidin-3-yl)urea], the IC50 was 1.14 nM. Still for that read-out and setting: the value for `Cn1ncc2cc(NC(=O)N[C@@H](c3ccccc3)C(C)(C)O)nc(CO)c21` [Example 226, 1-[7-(hydroxymethyl)-1-methyl-1H-pyrazolo[3,4-c]pyridin-5-yl]-3-[(1S)-2-hydroxy-2-methyl-1-phenylpropyl]urea] was 69.3 nM.

Take `Cc1cc(-n2ncc3cc(NC(=O)NCc4nonc4C)ncc32)ccn1` [Example 118, 1-[(4-methyl-1,2,5-oxadiazol-3-yl)methyl]-3-[1-(2-methylpyridin-4-yl)-1H-pyrazolo[3,4-c]pyridin-5-yl]urea]: the IC50 stood at 5.38 nM. As to `Cc1cc(-n2ncc3cc(NC(=O)NC4CNCC4c4ccccc4)ncc32)ccn1` (stereo not shown) [Example 63, 1-[1-(2-methylpyridin-4-yl)-1H-pyrazolo[3,4-c]pyridin-5-yl]-3-(4-phenylpyrrolidin-3-yl)urea], the IC50 stood at 54.4 nM. Same read-out and setting: the same measure for `C=CC(=O)NCCc1nc(NC(=O)N[C@H](C)c2ccccc2)cc2cnn(C)c12` [Example 329, N-{2-[1-Methyl-5-({[(1R)-1-phenylethyl]carbamoyl}amino)-1H-pyrazolo[3,4-c]pyridin-7-yl]ethyl}prop-2-enamide]: 563 nM; for `C=CC(=O)NCc1nc(NC(=O)N[C@H](C)c2ccccc2)cc2cnn(C)c12` [Example 324, N-{[1-Methyl-5-({[(1R)-1-phenylethyl]carbamoyl}amino)-1H-pyrazolo[3,4-c]pyridin-7-yl]methyl}prop-2-enamide]: 432 nM. For the molecule `O=C(NCCc1ccccc1F)Nc1cc2cnn(-c3ccncc3)c2cn1` [Example 40, 1-[2-(2-fluorophenyl)ethyl]-3-(1-pyridin-4-yl-1H-pyrazolo[3,4-c]pyridin-5-yl)urea], the IC50 is 9.2 nM. Consider `O=C(Nc1cc2cnn(-c3ccncc3)c2cn1)NC1CCCc2ccccc21` (stereo not shown) [Example 10, 1-(1-pyridin-4-yl-1H-pyrazolo[3,4-c]pyridin-5-yl)-3-(1,2,3,4-tetrahydronaphthalen-1-yl)urea], for which the IC50 came to 34.7 nM. Still for that read-out and setting: the value for `Cc1cc(-n2ncc3cc(NC(=O)N[C@H]4CNC[C@@H]4Oc4ccc(F)cc4)ncc32)ccn1` [Example 284, 1-[(3S,4S)-4-(4-fluorophenoxy)pyrrolidin-3-yl]-3-[1-(2-methylpyridin-4-yl)-1H-pyrazolo[3,4-c]pyridin-5-yl]urea] was 24.1 nM.
